According to US20060172019A1 (priority 2003, published 2006):
Entries after “also recorded” stand apart in the source; their conditions may differ. Where two headings read alike, the source gives them in different places.

Experiments:
[1] = target: T1, CB1 receptor (Homo sapiens, UniProt P21554); details: cited from earlier work
[2] = target: T2, CB2 receptor (Homo sapiens, UniProt P34972)
[3] = target: T1, CB1 receptor; details: read-out: Ki (nM) CB1, cited from earlier work
[4] = target: T2, CB2 receptor; details: cited from earlier work; for Classification CB2: Table 1; for CB receptor function (CB2): Table 2
[5] = test system: J774 murine macrophage cells; test: Alamar Blue J774 murine macrophage viability assay; assay type: cell-based; details: for IC50: Mus musculus; for effect on J774 survival: data not shown
Procedure: J774 cells were plated at 10^4 cells per well in 150 μL αMEM (α Modified Eagle Medium) in 96-well plates and grown overnight. The next day, compounds were added to the cultures, and culture was continued for another 72 hours.
Alamar Blue is an oxidation-reduction sensitive indicator. The dye itself is in the oxidised state, which is blue and non-fluorescent. The dye can accept electrons from reducing species, such as NADPH and FADH, to form a reduced dye species, which is red and fluorescent. Thus the transformation from oxidised form to reduced form can be measured by fluorimetric or colourimetric means. For fluorescence measurements, 530-560 nm excitation and 590 nm emission wavelengths are typically used. For colourimetric measurements, absorbance is measured at 570 nm (reduced form) and 600 nm (oxidised form) and a simple calculation performed to determine the relative quantities of the two species.
A high ratio of the reducing species, NADPH and FADH, to the corresponding oxidised species, NADP and FAD, is an indicator that cells are proliferating and viable. A low ratio indicates cells that are quiescent or non-viable.
Briefly, Alamar Blue (Biosource International) was added undiluted to the each well (1:10 v/v, 15 μL). The plate was incubated at 37° C. for 3-4 hours and the fluorescence was measured at 570 nm, with a 25 nm bandwidth. A high reading indicated cells with normal viability, and a low reading indicates cells that have been damaged and are no longer proliferating normally.
In general, compounds studied were made up as 100 mM solutions in DMSO. These stock solutions were then diluted 100 or 1000× in culture medium (αMEM).

[6] = test system: ovariectomy induced bone loss; test: Ovariectomy induced bone loss, peripheral quantitative computed tomography; assay type: in vivo, C57/BL6 mice; details: for ovariectomy-induced bone loss in a mouse model: in vivo
[7] = test system: rabbit osteoclasts; test: Rabbit osteoclast culture; assay type: cell-based
Procedure: Osteoclast survival and activity was studied in cultures of rabbit osteoclasts. Osteoclasts were isolated from the long bones of 2-3 day-old rabbits as described previously (see, e.g., Coxon et al., 2000), plated on dentine slices and cultured in αMEM supplemented with 10% FCS and penicillin and streptomycin at 37° C. in 5% CO2 for 48 hours in the presence or absence of test compounds.

[8] = test system: mouse osteoblasts; test: Mouse osteoblast culture (Alamar Blue); assay type: cell-based; details: 72 hours, n=3
Procedure: Osteoblasts were isolated as described above and plated at 10^4 cells/well in 96-well plates in 100 μL of αMEM supplemented with 10% FCS and antibiotics. Test substances were added after 24 hours and left for 72 hours. Cell viability was assessed using the Alamar Blue assay.

[9] = test system: ovariectomy induced bone loss; test: Ovariectomy induced bone loss, dual energy x-ray absorptiometry; assay type: in vivo, C57/BL6 mice; details: 6 mg/kg, OVX operation, DEXA
Procedure: Animals. Female 9 week-old C57/BL6 mice. Animals were housed in a designated animal facility and routinely maintained on a 12 h:12 h light:dark cycle and given ad libitum access to food and water.
Ovariectomy induced bone loss. Bilateral ovariectomy (Ovx) was performed under general anaesthesia. Sham ovariectomy (Sham) was similarly performed but with externalisation and replacement of the ovaries. Animals were given a daily injection of (a) candidate compound (e.g., 6 mg/kg) in vehicle (corn oil), or (b) vehicle (corn oil). After 21 days, the animals were killed, and the tibial bones were dissected and used for bone mineral density measurements and histomorphometric analysis (see below).
Whole body, spine and femoral bone mineral density (BMD) and bone mineral content (BMC) were determined using a Piximus small animal DEXA scanner at the start and the end of the experiment. Daily quality assurance measurements were performed using a phantom according to the manufacturer's instructions.

[10] = test system: osteoclasts; test: cells; assay type: cell-based, mice; details: Mus musculus, Osteoclast; TRAcP MNC and resorbed area, n=3; read-out: IC50, inhibition of osteoclast function and bone resorption
Procedure: Osteoblasts were isolated from the calvarial bones of 2-day-old mice by sequential collagenase digestion (type I collagenase, Sigma) and cultured in αMEM supplemented with 10% FCS and penicillin and streptomycin at 37° C. in 5% CO2. […] The resulting bone marrow cells were washed with PBS and resuspended in culture medium.
Osteoblasts and bone marrow cells were plated at 10^4 cells/well and 2×10^5 cells/well, respectively, in 96-well plates in 150 μL of αMEM supplemented with 10% FCS, antibiotics and 10 nM 1,25-dihydroxyvitamin D3. Test substances were added on day 7 and the cultures were terminated on day 10. At the end of the culture period, osteoclasts were identified by TRAcP staining and resorption pits were quantified by reflected light microscopy, as described above.

[11] = J774, Alamar Blue, 72 hours, n=3, read-out: IC50, J774 survival
[12] = J774 viability assay, Table 2, read-out: IC50 in J774 cells
[13] = Table 1; read-out: Ki (nM) CB2; cited from earlier work

T1 sequence (P21554 whole entry): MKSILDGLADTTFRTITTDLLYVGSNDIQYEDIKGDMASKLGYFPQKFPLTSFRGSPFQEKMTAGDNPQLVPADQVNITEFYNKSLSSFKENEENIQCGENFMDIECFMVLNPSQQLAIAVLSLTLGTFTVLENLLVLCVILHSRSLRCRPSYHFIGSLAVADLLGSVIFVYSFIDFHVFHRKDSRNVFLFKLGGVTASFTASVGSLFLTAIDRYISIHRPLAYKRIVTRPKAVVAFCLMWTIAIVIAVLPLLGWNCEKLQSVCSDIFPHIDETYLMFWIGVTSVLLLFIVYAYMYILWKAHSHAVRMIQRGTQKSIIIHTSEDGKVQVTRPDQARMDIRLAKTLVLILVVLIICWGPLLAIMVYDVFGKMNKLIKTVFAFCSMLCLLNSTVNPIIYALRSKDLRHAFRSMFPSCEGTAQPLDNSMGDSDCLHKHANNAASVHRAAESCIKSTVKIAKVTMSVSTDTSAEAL
T2 sequence (P34972 whole entry): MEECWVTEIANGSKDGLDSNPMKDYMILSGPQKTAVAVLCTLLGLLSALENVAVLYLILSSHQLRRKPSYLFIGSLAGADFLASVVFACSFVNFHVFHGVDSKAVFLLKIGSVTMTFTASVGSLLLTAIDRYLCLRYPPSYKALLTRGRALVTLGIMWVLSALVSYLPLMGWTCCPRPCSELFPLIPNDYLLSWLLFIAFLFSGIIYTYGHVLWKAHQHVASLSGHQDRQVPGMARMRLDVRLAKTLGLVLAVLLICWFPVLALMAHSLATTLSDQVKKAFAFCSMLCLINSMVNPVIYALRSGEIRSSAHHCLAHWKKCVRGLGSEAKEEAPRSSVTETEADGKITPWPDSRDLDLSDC

## CCCCCc1cc(O)c2c(c1)OC(C)(C)c1ccc(C)cc1-2 [Cannabinol, cannabinol]
[1]
  Classification CB1: Neutral antagonist
[2]; read-out: Ki (nM) CB2; Table 1; cited from earlier work
  Ki: 580 nM
[3]
  Ki: 115 nM
[4]
  Classification CB2: Inverse agonist

## COc1ccc(C(=O)c2c(C)n(CCN3CCOCC3)c3cc(I)ccc23)cc1 [AM630]
[5]
  J774 viability (summary in words): inhibit
[5]; [11]
  IC50: ~20 µM
[5]; [12]
  IC50: 20 µM
[4]
  Classification CB2: Inverse agonist
  CB receptor function (CB2): CB2 inverse agonist

## CCCCC/C=C\C/C=C\C/C=C\C/C=C\CCCC(=O)NCCO [Anandamide, arachidonyl ethanolamide]
[5]
  J774 viability (summary in words): inhibits
[5]; [11]
  IC50: ~40 µM
[5]; [12]
  IC50: 40 µM
[5]; low concentrations
  effect on J774 survival: no effect
[4]
  Classification CB2: Partial agonist
  CB receptor function (CB2): CB2 partial agonist/; also recorded: antagonist

## Cc1c(C(=O)NN2CCCCC2)nn(-c2ccc(Cl)cc2Cl)c1-c1ccc(I)cc1 [AM251]
[1]
  CB receptor function (CB1): CB1 inverse agonist
  Classification CB1: Inverse agonist
[6]
  ovariectomy-induced bone loss in a mouse model: completely reverse
[5]
  J774 viability (summary in words): inhibit
[7]; 10 μM (p<0.03) and 20 μM (p<0.01), 48 hours
  bone resorption (resorbed area): reduced

## Cc1ccc(Cn2nc(C(=O)NN3CCCCC3)cc2-c2ccc(Cl)c(C)c2)cc1 [piperidinyl, 5-(4-Chloro-3-methyl-phenyl)-1-(4-methyl-benzyl)-1H-pyrazole-3-carboxylic acid piperidin-1-yl amide]
[5]; [11]
  IC50: ~15 µM

## CC1=CCC2[C@@H](C1)c1c(O)cc(C/C=C\CCCN=[N+]=[N-])cc1OC2(C)C (stereo partly drawn) [O1238]
[1]; Table 1
  Classification CB1: Partial agonist
[2]; [13]
  Ki: 7.8 nM
[3]; Table 1
  Ki: 3.5 nM
[4]
  Classification CB2: Partial agonist

## COC(=O)c1cc(-c2ccc(Cl)c(C)c2)n(Cc2ccc(C)cc2)n1 [methyl, 5-(4-Chloro-3-methyl-phenyl)-1-(4-methyl-benzyl)-1H-pyrazole-3-carboxylic acid methyl ester]
[5]; [11]
  IC50: ~9 µM

## Cc1c(C(=O)c2cccc3ccccc23)c2cccc3c2n1[C@H](CN1CCOCC1)CO3 [WIN55212]
[5]
  J774 viability (summary in words): do not affect
[5]; J774 viability assay, Table 2
  IC50 in J774 cells: inactive
[5]; concentrations of up to 100 μM
  effect on J774 survival: did not affect
[4]
  CB receptor function (CB2): CB2 agonist

## CCCCCCC(C)(C)c1ccc([C@@H]2C[C@H](O)CC[C@H]2CCCO)c(O)c1 [CP55940]
[1]
  CB receptor function (CB1): CB1 agonist
[5]
  J774 viability (summary in words): do not affect
[5]; J774 viability assay, Table 2
  IC50 in J774 cells: inactive
[5]; concentrations of up to 100 μM
  effect on J774 survival: did not affect
[4]
  CB receptor function (CB2): CB2 agonist

## CCCCCc1cc(O)c2c(c1)OC(C)(C)[C@@H]1CCC(C)=C[C@@H]21 [Δ^9THC, Δ^9-tetrahydrocannabinol]
[4]
  Classification CB2: Neutral antagonist

## CCCC(C)(C)c1ccc2c(c1)OC(C)(C)[C@@H]1CC=C(C)C[C@@H]21 [JWH 133]
[5]
  J774 viability (summary in words): does not affect
[5]; J774 viability assay, Table 2
  IC50 in J774 cells: inactive
[5]; concentrations of up to 20 μM
  effect on J774 survival: did not affect
[4]
  CB receptor function (CB2): CB2-selective agonist

## Cc1c(C(=O)NN2CCCCC2)nn(-c2ccc(Cl)cc2Cl)c1-c1ccc(Cl)cc1 [SR141716A]
[4]
  Classification CB2: Inverse agonist

## CCCCCOc1c(OC)ccc2cc(C(=O)NCc3ccc4c(c3)OCO4)c(=O)[nH]c12 [JTE-907, 7-Methoxy-2-oxo-8-pentyloxy-1,2-dihydro-quinoline-3-carboxylic acid (benzo[1,3]dioxol-5-yl-methyl)-amide]
[8]
  osteoblast survival: little activity
[1]
  Classification CB1: Inactive
[5]; [11]
  IC50: ~25 µM
[5]; [12]
  IC50: 25 µM
[3]
  Ki: 684 nM
[4]
  Classification CB2: Inverse agonist
  CB receptor function (CB2): CB2 inverse agonist

## Cc1c(C(=O)NN2CCOCC2)nn(-c2ccc(Cl)cc2Cl)c1-c1ccc(I)cc1 [AM281]
[1]; Table 1
  Classification CB1: Inverse agonist
[3]; Table 1
  Ki: 12 nM

## Cc1ccc(Cn2nc(C(=O)NC3C4(C)CCC(C4)C3(C)C)cc2-c2ccc(Cl)c(C)c2)cc1 [SR144528, 5-(4-Chloro-3-methyl-phenyl)-1-(4-methyl-benzyl)-1H-pyrazole-3-carboxylic acid ((1S)-1,3,3-trimethylbicyclo[2.2.1]hept-2endo,exo-yl)-amide]
[9]
  ovariectomy-induced bone loss at the femoral site (femoral bone mineral content and density): very effective at reversing the bone loss
[8]
  osteoblast survival: little activity
[1]
  Classification CB1: Inverse agonist
[10]
  IC50: ~5 µM
[6]; 6 mg/kg daily injection, 21 days, pQCT, tibia
  ovariectomy-induced bone loss, trabecular density: very effective at reversing the bone loss
[6]
  ovariectomy-induced bone loss in a mouse model: completely reverse
[5]; [11]
  IC50: ~9 µM
[5]; [12]
  IC50: 9 µM
[7]
  survival and resorptive activity of authentic rabbit osteoclasts: inhibit

## CC1=CCC2[C@@H](C1)c1c(O)cc(CC#CCCCN=[N+]=[N-])cc1OC2(C)C (stereo partly drawn) [O1184]
[1]; Table 1
  Classification CB1: Partial agonist
[2]; [13]
  Ki: 7.4 nM
[3]; Table 1
  Ki: 5.2 nM
[4]
  Classification CB2: Inverse agonist

## COc1ccc(-c2oc3cc(OC)ccc3c2C(=O)c2ccc(C#N)cc2)cc1 [LY320135]
[1]; Table 1
  Classification CB1: Inverse agonist
[4]
  Classification CB2: Inactive

## Cc1ccc(Cn2nc(C(=O)NCc3ccc4c(c3)OCO4)cc2-c2ccc(Cl)c(C)c2)cc1 [benzodioxo, 5-(4-Chloro-3-methyl-phenyl)-1-(4-methyl-benzyl)-1H-pyrazole-3-carboxylic acid (benzo[1,3]dioxol-5-yl-methyl) amide]
[5]; [11]
  IC50: ~15 µM
